Data from patent publication US20160193206A1, “BET-PROTEIN-INHIBITING DIHYDROPYRIDOPYRAZINONES” (BAYER PHARMA AKTIENGESELLSCHAFT, priority 2012, published 2016).

What was measured:
[1] = target: T1, BRD4 bromo domain 1 [BRD4(1)] (Homo sapiens, UniProt O60885); assay: BRD4(1)/acetylated peptide H4 binding assay (TR-FRET); details: inhibition of interaction between His6-tagged BRD4(1) (amino acids 67-152) and acetylated histone H4 peptide
T1 construct: N-terminally His6-tagged BRD4(1) (amino acids 67-152); made in house; host or cells: E. coli
How it was run: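 IC50 came from a 4-parameter fit of the 665/620 nm emission ratio, normalised to DMSO and no-protein controls. His6-tagged BRD4(1) residues 67-152 (typically 10 nM final) was preincubated 10 min with compound (0.1 nM to 20 μM, duplicates), then exposed to Ac-H4-biotin peptide at 22 °C for 1 h and 4 °C for at least 3 h.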

[2] = target: T2, BRD4 bromo domain 2 [BRD4(2)] (Homo sapiens, UniProt O60885); assay: BRD4(2)/acetylated peptide H4 binding assay (TR-FRET); details: inhibition of interaction between His6-tagged BRD4(2) (amino acids 357-445) and acetylated histone H4 peptide
T2 construct: N-terminally His6-tagged BRD4(2) (amino acids 357-445); made in house; host or cells: E. coli
How it was run: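 Compounds (0.1 nM to 20 μM, 11 points, duplicates) preincubated 10 min at 22 °C with 100 nM His6-tagged BRD4(2) residues 357-445, then Ac-H4-biotin peptide added; incubated 1 h at 22 °C and 3 h-overnight at 4 °C. Eu/XL665 emission ratio normalised to DMSO and no-protein controls; 4-parameter IC50.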

MOLM-13 cell line = assay: MOLM-13 cell proliferation assay (alamarBlue); assay type: cell-based; details: Homo sapiens, inhibition of proliferation of MOLM-13 cells (acute myeloid leukaemia), 96 hours incubation
Procedure: In accordance with the invention, the substances were tested for their ability to inhibit the proliferation of the MOLM-13 cell linie (Deutsche Sammlung für Mikroorganismen und Zellkulturen [German Collection of Microorganisms and Cell Cultures], ACC 554; acute myeloid leukaemia). Cell viability was determined by means of the alamarBlue® reagent (Invitrogen) in a Victor X3 Multilabel Reader (Perkin Elmer). The excitation wavelength was 530 nm and the emission wavelength […].
The MOLM-13 cells were sown at a density of 4000 cells/well in 100 μl of growth medium on 96-well microtitre plates. After overnight incubation at 37° C., the fluorescence values were determined (CI values). The plates were then treated with various substance dilutions and incubated at 37° C. for 96 hours. Subsequently, the fluorescence values were determined (CO values). For the data analysis, the CI values were subtracted from the CO values and the results were compared between cells which had been treated with various dilutions of the substance or only with buffer solution. The IC50 values (substance concentration needed for 50% inhibition of cell proliferation) were calculated therefrom.

Row | SMILES | IC50 [1] [nM] | IC50 [2] [nM] | IC50 (MOLM-13 cell line) [nM]
1 | Cc1cc(C(=O)N[C@H]2CC[C@H](N3CCN(CC4CC4)CC3)CC2)ccc1Nc1ccc2c(n1)N(C1CCOCC1)[C@H](C)C(=O)N2C [Example 37, N-{trans-4-[4-(Cyclopropylmethyl)piperazin-1-yl]cyclohexyl}-4-{[(3R)-1,3-dimethyl-2-oxo-4-(tetrahydro-2H-pyran-4-yl)-1,2,3,4-tetrahydropyrido[2,3-b]pyrazin-6-yl]amino}-3-methylbenzamide] | 347 | 306 | 859
2 | COc1cc(C(=O)NC2CCC(=O)CC2)ccc1Nc1ccc2c(n1)N(C1CCOCC1)[C@H](C)C(=O)N2C [Example 38, 4-{[(3R)-1,3-Dimethyl-2-oxo-4-(tetrahydro-2H-pyran-4-yl)-1,2,3,4-tetrahydropyrido[2,3-b]pyrazin-6-yl]amino}-3-methoxy-N-(4-oxocyclohexyl)benzamide] | 194 | 79 | 51
3 | C[C@@H]1C(=O)N(C)c2ccc(Nc3ccc(C(=O)N4CC5(COC5)C4)cc3)nc2N1Cc1ccccc1 [Example 41, (3R)-4-Benzyl-1,3-dimethyl-6-{[4-(2-oxa-6-azaspiro[3.3]hept-6-ylcarbonyl)phenyl]amino}-3,4-dihydropyrido[2,3-b]pyrazin-2(1H)-one] | 122 | 109 | 191
4 | C[C@@H]1C(=O)N(C)c2ccc(Nc3ccc(C(=O)NC4CCC(O)CC4)cc3)nc2N1Cc1ccccc1 (stereo partly drawn) [Example 42, 4-{[(3R)-4-Benzyl-1,3-dimethyl-2-oxo-1,2,3,4-tetrahydropyrido[2,3-b]pyrazin-6-yl]amino}-N-(4-hydroxycyclohexyl)benzamide] | 156 | 99 | 326
5 | COc1cc(C(=O)N2CCN(C)CC2)ccc1Nc1ccc2c(n1)N(C1CCOCC1)[C@H](C)C(=O)N2C [Example 45, (3R)-6-({2-Methoxy-4-[(4-methylpiperazin-1-yl)carbonyl]phenyl}amino)-1,3-dimethyl-4-(tetrahydro-2H-pyran-4-yl)-3,4-dihydropyrido[2,3-b]pyrazin-2(1H)-one] | 77 | 86 | 539
6 | C[C@@H]1C(=O)N(C)c2ccc(Nc3ccc(C(=O)NCCN(C)C)cc3)nc2N1C1CCOCC1 [Example 48, N-[2-(Dimethylamino)ethyl]-4-{[(3R)-1,3-dimethyl-2-oxo-4-(tetrahydro-2H-pyran-4-yl)-1,2,3,4-tetrahydropyrido[2,3-b]pyrazin-6-yl]amino}benzamide] | 103 | 167 | 583
7 | C[C@@H]1C(=O)N(C)c2ccc(Nc3ccc(C(=O)NC4CN(C)C4)cc3)nc2N1C1CCOCC1 [Example 50, 4-{[(3R)-1,3-Dimethyl-2-oxo-4-(tetrahydro-2H-pyran-4-yl)-1,2,3,4-tetrahydropyrido[2,3-b]pyrazin-6-yl]amino}-N-(1-methylazetidin-3-yl)benzamide] | 145 | 111 | 576
8 | C[C@@H]1C(=O)N(C)c2ccc(Nc3ccc(C(=O)NCCN4CCN(C)CC4)cc3)nc2N1C1CCOCC1 [Example 51, 4-{[(3R)-1,3-Dimethyl-2-oxo-4-(tetrahydro-2H-pyran-4-yl)-1,2,3,4-tetrahydropyrido[2,3-b]pyrazin-6-yl]amino}-N-[2-(4-methylpiperazin-1-yl)ethyl]benzamide] | 138 | 219 | 507
9 | COc1cc(C(=O)N2CCC(N3CCCCC3)CC2)ccc1Nc1ccc2c(n1)N(C1CCOCC1)[C@H](C)C(=O)N2C [Example 53, (3R)-6-{[4-(1,4′-Bipiperidin-1′-ylcarbonyl)-2-methoxyphenyl]amino}-1,3-dimethyl-4-(tetrahydro-2H-pyran-4-yl)-3,4-dihydropyrido[2,3-b]pyrazin-2(1H)-one] | 90 | 94 | 249
